Assay results as given in patent publication US20260092083A1, “VANCOMYCIN DERIVATIVES WITH SIDEROPHORE MODIFICATION AS NOVEL REPURPOSED ANTIBIOTICS TO COMBAT GRAM-NEGATIVE BACTERIAL INFECTION” (priority 2023, published 2026).
Values after ≈ are worked out from the molar mass of the structure shown.

How the values were obtained:
Format in all cases: cell-based
[1] = test system: K. pneumoniae ATCC 700603; assay: Broth microdilution MIC, K. pneumoniae; settings: Klebsiella pneumoniae, ATCC700603, read-out: MIC (μg/mL) Gram-negative KPN
Protocol: (§1) The test compounds including vancomycin hydrochloride were supplied as a 6.4 mg/mL solution in 100% dimethyl sulfoxide (DMSO) aliquoted into individual wells of a 96-well plate (50 μL per well). […] Standardized inocula were added to the MIC test plates, which were incubated for the prescribed times at 35° C. The N. gonorrhoeae strain was incubated in an atmosphere containing 5% CO2.
(§2) The final optical density of each well at 600 nm was measured using a Tecan Spark plate reader. The compound concentration versus OD600 data were then curve fit using custom software. An MIC value was defined as the lowest compound concentration that led to an OD600 value≤0.15 for the E. coli, K. pneumoniae, P. aeruginosa, A. baumannii, or S. aureus strains. For the N. gonorrhoeae strain, an OD600 value≤0.19 was used as a cutoff to define an MIC value; this higher cut-off value was required because the N. gonorrhoeae MIC plates were covered with plastic seals that increased the background OD600 value.
(§3) JMI Laboratories followed current CLSI quality assurance practices when performing the susceptibility tests. MIC values were validated by concurrently testing the CLSI-recommended ATCC QC reference strains S. aureus ATCC 29213 and K. pneumoniae ATCC 700603. The inoculum density during susceptibility testing was monitored by bacterial colony counts. Where applicable, QC ranges for tested reference strains were those ranges approved or published by CLSI for testing in CAMHB. […] Importantly, the CLSI reference method for testing N. gonorrhoeae is the agar dilution MIC method, which was not used here. Thus, CLSI MIC QC ranges for N. gonorrhoeae could not be applied to the antimicrobials studied here.
(§4) Abbreviations: EC, E. coli (wild-type) BW25113; EC efflux^−, E. coli (tolC) JW5503-1; KPN, K. pneumoniae ATCC 700603; PSA, P. aeruginosa PAO1; PSA efflux^−, P. aeruginosa (multi-pump-gene mutant) PAM1626; ACB, A. baumannii JMI #1186154; GC, N. gonorrhoeae WHO-Z; SA, S. aureus ATCC 29213. Broth microdilution MIC values were measured in iron-depleted CAMHB for all strains except for GC, which was tested in fastidious broth.

[2] = test system: P. aeruginosa (multi-pump-gene mutant) PAM1626; assay: Broth microdilution MIC, P. aeruginosa efflux-deficient; settings: Pseudomonas aeruginosa, read-out: MIC (μg/mL) Gram-negative PSA Efflux
Protocol: as §1, §2, §3, §4

E. coli (tolC) JW5503-1 = assay: Broth microdilution MIC, E. coli efflux-deficient (tolC); settings: Escherichia coli, read-out: MIC (μg/mL) Gram-negative EC Efflux
Protocol: as §1, §2, §3, §4

P. aeruginosa PAO1 = assay: Broth microdilution MIC, P. aeruginosa; settings: Pseudomonas aeruginosa, iron-depleted CAMHB, OD600 ≤0.15, read-out: MIC (μg/mL) Gram-negative PSA
Protocol: as §1, §2, §3, §4

S. aureus ATCC 29213 = assay: Broth microdilution MIC, S. aureus; settings: Staphylococcus aureus, ATCC29213, iron-depleted CAMHB, OD600 ≤0.15, read-out: MIC (μg/mL) Gram positive SA
Protocol: as §1, §2, §3, §4

N. gonorrhoeae WHO-Z = assay: Broth microdilution MIC, N. gonorrhoeae; settings: Neisseria gonorrhoeae, read-out: MIC (μg/mL) Gram-negative GC
Protocol: as §1, §2, §3, §4

[3] = test system: A. baumannii JMI #1186154; assay: Broth microdilution MIC, A. baumannii; settings: Acinetobacter baumannii, iron-depleted CAMHB, OD600 ≤0.15, read-out: MIC (μg/mL) Gram-negative ACB
Protocol: as §1, §2, §3, §4

[4] = test system: E. coli (wild-type) BW25113; assay: Broth microdilution MIC, E. coli wild-type; settings: Escherichia coli, iron-depleted CAMHB, OD600 ≤0.15, read-out: MIC (μg/mL) Gram-negative EC
Protocol: as §1, §2, §3, §4

Row | Compound | MIC [1] [µg/mL] | MIC [2] [µg/mL] | MIC (E. coli (tolC) JW5503-1) [µg/mL] | MIC (P. aeruginosa PAO1) [µg/mL] | MIC (S. aureus ATCC 29213) [µg/mL] | MIC (N. gonorrhoeae WHO-Z) [µg/mL] | MIC [3] [µg/mL] | MIC [4] [µg/mL]
1 | CN[C@H](CC(C)C)C(=O)N[C@H]1C(=O)N[C@@H](CC(N)=O)C(=O)N[C@H]2C(=O)N[C@H]3C(=O)N[C@H](C(=O)N[C@H](C(=O)NCCCCCCNC(=O)c4ccc(O)c(O)c4Cl)c4cc(O)cc(O)c4-c4cc3ccc4O)[C@H](O)c3ccc(c(Cl)c3)Oc3cc2cc(c3O[C@@H]2O[C@H](CO)C(O)C(O)[C@H]2O[C@H]2CC(C)(N)[C@H](O)[C@H](C)O2)Oc2ccc(cc2Cl)[C@H]1O (some centres unmarked) [Compound 7] | > 64 | > 64 | 64 (≈ 37.3 µM) | > 64 | 4 (≈ 2.33 µM) | > 64 | 1 (≈ 0.582 µM) | 64 (≈ 37.3 µM)
2 | CN[C@H](CC(C)C)C(=O)N[C@H]1C(=O)N[C@@H](CC(N)=O)C(=O)N[C@H]2C(=O)N[C@H]3C(=O)N[C@H](C(=O)N[C@H](C(=O)NCCCCCCCNC(=O)c4ccc(O)c(O)c4Cl)c4cc(O)cc(O)c4-c4cc3ccc4O)[C@H](O)c3ccc(c(Cl)c3)Oc3cc2cc(c3O[C@@H]2O[C@H](CO)C(O)C(O)[C@H]2O[C@H]2CC(C)(N)[C@H](O)[C@H](C)O2)Oc2ccc(cc2Cl)[C@H]1O (some centres unmarked) [Compound 8] | > 64 | > 64 | 64 (≈ 37 µM) | > 64 | 4 (≈ 2.31 µM) | > 64 | 2 (≈ 1.15 µM) | 64 (≈ 37 µM)
3 | CN[C@H](CC(C)C)C(=O)N[C@H]1C(=O)N[C@@H](CC(N)=O)C(=O)N[C@H]2C(=O)N[C@H]3C(=O)N[C@H](C(=O)N[C@H](C(=O)NCCCCCCCCNC(=O)c4ccc(O)c(O)c4Cl)c4cc(O)cc(O)c4-c4cc3ccc4O)[C@H](O)c3ccc(c(Cl)c3)Oc3cc2cc(c3O[C@@H]2O[C@H](CO)C(O)C(O)[C@H]2O[C@H]2CC(C)(N)[C@H](O)[C@H](C)O2)Oc2ccc(cc2Cl)[C@H]1O (some centres unmarked) [Compound 9] | > 64 | > 64 | 64 (≈ 36.7 µM) | > 64 | 4 (≈ 2.29 µM) | > 64 | 8 (≈ 4.58 µM) | 64 (≈ 36.7 µM)
4 | CN[C@H](CC(C)C)C(=O)N[C@H]1C(=O)N[C@@H](CC(N)=O)C(=O)N[C@H]2C(=O)N[C@H]3C(=O)N[C@H](C(=O)N[C@H](C(=O)NCCCNC(=O)c4cccc(O)c4O)c4cc(O)cc(O)c4-c4cc3ccc4O)[C@H](O)c3ccc(c(Cl)c3)Oc3cc2cc(c3O[C@@H]2O[C@H](CO)C(O)C(O)[C@H]2O[C@H]2CC(C)(N)[C@H](O)[C@H](C)O2)Oc2ccc(cc2Cl)[C@H]1O (some centres unmarked) [Compound 12] | > 64 | > 64 | 64 (≈ 39 µM) | > 64 | 2 (≈ 1.22 µM) | > 64 | 4 (≈ 2.44 µM) | 64 (≈ 39 µM)
5 | CN[C@H](CC(C)C)C(=O)N[C@H]1C(=O)N[C@@H](CC(N)=O)C(=O)N[C@H]2C(=O)N[C@H]3C(=O)N[C@H](C(=O)N[C@H](C(=O)NCCCCNC(=O)c4cccc(O)c4O)c4cc(O)cc(O)c4-c4cc3ccc4O)[C@H](O)c3ccc(c(Cl)c3)Oc3cc2cc(c3O[C@@H]2O[C@H](CO)C(O)C(O)[C@H]2O[C@H]2CC(C)(N)[C@H](O)[C@H](C)O2)Oc2ccc(cc2Cl)[C@H]1O (some centres unmarked) [Compound 13] | > 64 | > 64 | > 64 | > 64 | 2 (≈ 1.21 µM) | > 64 | 4 (≈ 2.42 µM) | 64 (≈ 38.7 µM)
6 | CNC(CC(C)C)C(=O)NC1C(=O)NC(CC(N)=O)C(=O)NC2C(=O)NC3C(=O)NC(C(=O)N[C@H](C(=O)NCCc4cn(CCNC(=O)c5cccc(O)c5O)nn4)c4cc(O)cc(O)c4-c4cc3ccc4O)C(O)c3ccc(c(Cl)c3)Oc3cc2cc(c3OC2OC(CO)C(O)C(O)C2OC2CC(C)(N)C(O)C(C)O2)Oc2ccc(cc2Cl)C1O (some centres unmarked) [Compound 15] | > 64 | > 64 | > 64 | > 64 | 4 (≈ 2.32 µM) | > 64 | 16 (≈ 9.29 µM) | > 64
7 | CN[C@H](CC(C)C)C(=O)N[C@H]1C(=O)N[C@@H](CC(N)=O)C(=O)N[C@H]2C(=O)N[C@H]3C(=O)N[C@H](C(=O)N[C@H](C(=O)NCCCNS(=O)(=O)c4ccc(O)c(O)c4)c4cc(O)cc(O)c4-c4cc3ccc4O)[C@H](O)c3ccc(c(Cl)c3)Oc3cc2cc(c3O[C@@H]2O[C@H](CO)C(O)C(O)[C@H]2O[C@H]2CC(C)(N)[C@H](O)[C@H](C)O2)Oc2ccc(cc2Cl)[C@H]1O (some centres unmarked) [Compound 16] | > 64 | > 64 | 64 (≈ 38.2 µM) | > 64 | 4 (≈ 2.38 µM) | > 64 | 4 (≈ 2.38 µM) | 32 (≈ 19.1 µM)
8 | CN[C@H](CC(C)C)C(=O)N[C@H]1C(=O)N[C@@H](CC(N)=O)C(=O)N[C@H]2C(=O)N[C@H]3C(=O)N[C@H](C(=O)N[C@H](C(=O)NCCCCNS(=O)(=O)c4ccc(O)c(O)c4)c4cc(O)cc(O)c4-c4cc3ccc4O)[C@H](O)c3ccc(c(Cl)c3)Oc3cc2cc(c3O[C@@H]2O[C@H](CO)C(O)C(O)[C@H]2O[C@H]2CC(C)(N)[C@H](O)[C@H](C)O2)Oc2ccc(cc2Cl)[C@H]1O (some centres unmarked) [Compound 17] | > 64 | > 64 | 64 (≈ 37.8 µM) | > 64 | 2 (≈ 1.18 µM) | > 64 | 2 (≈ 1.18 µM) | 32 (≈ 18.9 µM)
9 | CNC(CC(C)C)C(=O)N[C@H]1C(=O)N[C@@H](CC(N)=O)C(=O)N[C@H]2C(=O)N[C@H]3C(=O)N[C@H](C(=O)N[C@@H](C(=O)NCc4cn(CCNC(=O)c5ccc(O)c(O)c5Cl)nn4)c4cc(O)cc(O)c4-c4cc3ccc4O)[C@H](O)c3ccc(c(Cl)c3)Oc3cc2cc(c3OC2O[C@H](CO)C(O)C(O)[C@H]2O[C@H]2CC(C)(N)[C@H](O)C(C)O2)Oc2ccc(cc2Cl)[C@H]1O (some centres unmarked) [Compound 19] | > 64 | > 64 | > 64 | > 64 | 8 (≈ 4.59 µM) | > 64 | 1 (≈ 0.574 µM) | > 64
10 | CNC(CC(C)C)C(=O)NC1C(=O)NC(CC(N)=O)C(=O)NC2C(=O)NC3C(=O)NC(C(=O)N[C@H](C(=O)O)c4cc(O)c(CNCCCNC(=O)c5ccc(O)c(O)c5Cl)c(O)c4-c4cc3ccc4O)C(O)c3ccc(c(Cl)c3)Oc3cc2cc(c3OC2OC(CO)C(O)C(O)C2OC2CC(C)(N)C(O)C(C)O2)Oc2ccc(cc2Cl)C1O (some centres unmarked) [Compound 22] | > 64 | > 64 | 32 (≈ 18.8 µM) | > 64 | 64 (≈ 37.5 µM) | > 64 | 4 (≈ 2.34 µM) | 16 (≈ 9.38 µM)
11 | CNC(CC(C)C)C(=O)NC1C(=O)NC(CC(N)=O)C(=O)NC2C(=O)NC3C(=O)NC(C(=O)N[C@H](C(=O)O)c4cc(O)c(CNCCCCNC(=O)c5ccc(O)c(O)c5Cl)c(O)c4-c4cc3ccc4O)C(O)c3ccc(c(Cl)c3)Oc3cc2cc(c3OC2OC(CO)C(O)C(O)C2OC2CC(C)(N)C(O)C(C)O2)Oc2ccc(cc2Cl)C1O (some centres unmarked) [Compound 23] | > 64 | > 64 | > 64 | > 64 | 64 (≈ 37.2 µM) | > 64 | 8 (≈ 4.65 µM) | 64 (≈ 37.2 µM)
12 | CNC(CC(C)C)C(=O)NC1C(=O)NC(CC(N)=O)C(=O)NC2C(=O)NC3C(=O)NC(C(=O)N[C@H](C(=O)O)c4cc(O)c(CNCCNC(=O)c5cccc(O)c5O)c(O)c4-c4cc3ccc4O)C(O)c3ccc(c(Cl)c3)Oc3cc2cc(c3OC2OC(CO)C(O)C(O)C2OC2CC(C)(N)C(O)C(C)O2)Oc2ccc(cc2Cl)C1O (some centres unmarked) [Compound 24] | > 64 | > 64 | > 64 | > 64 | 32 (≈ 19.3 µM) | > 64 | 8 (≈ 4.83 µM) | > 64
13 | CNC(CC(C)C)C(=O)NC1C(=O)NC(CC(N)=O)C(=O)NC2C(=O)NC3C(=O)NC(C(=O)N[C@H](C(=O)O)c4cc(O)c(CNCCN[S@SP3](=O)(=O)c5ccc(O)c(O)c5)c(O)c4-c4cc3ccc4O)C(O)c3ccc(c(Cl)c3)Oc3cc2cc(c3OC2OC(CO)C(O)C(O)C2OC2CC(C)(N)C(O)C(C)O2)Oc2ccc(cc2Cl)C1O (some centres unmarked) [Compound 25] | > 64 | > 64 | 64 (≈ 37.8 µM) | > 64 | 4 (≈ 2.36 µM) | > 64 | 32 (≈ 18.9 µM) | 16 (≈ 9.45 µM)
